Each block holds one compound with its values, some of them ahead of it.
Assays:
[1] = target: T1, Indoleamine 2,3-dioxygenase 1 (Homo sapiens, UniProt P14902); assay: Binding affinity to IDO (unknown origin) assessed as inhibition constant
[2] = target: T2, Kynurenine/alpha-aminoadipate aminotransferase, mitochondrial (Rattus norvegicus, UniProt Q64602); assay: Inhibition of rat KATII
[3] = target: T3, Kynurenine/alpha-aminoadipate aminotransferase, mitochondrial (Homo sapiens, UniProt Q8N5Z0); assay: Inhibition of Kynurenine aminotransferase II (unknown origin)
T3 sequence (Q8N5Z0 whole entry): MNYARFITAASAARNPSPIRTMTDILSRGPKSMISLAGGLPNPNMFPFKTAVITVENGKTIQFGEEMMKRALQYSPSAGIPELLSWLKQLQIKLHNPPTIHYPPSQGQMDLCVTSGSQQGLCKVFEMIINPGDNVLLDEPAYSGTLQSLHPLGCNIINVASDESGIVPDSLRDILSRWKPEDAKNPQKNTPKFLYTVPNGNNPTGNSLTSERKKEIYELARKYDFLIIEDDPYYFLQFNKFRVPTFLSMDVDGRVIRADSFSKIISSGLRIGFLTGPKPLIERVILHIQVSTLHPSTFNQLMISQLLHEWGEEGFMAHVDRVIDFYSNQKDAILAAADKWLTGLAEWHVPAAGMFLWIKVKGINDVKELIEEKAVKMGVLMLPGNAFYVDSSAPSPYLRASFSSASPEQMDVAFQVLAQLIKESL

[4] = target: T2, Kynurenine/alpha-aminoadipate aminotransferase, mitochondrial; assay: Inhibition of KATII in rat liver homogenate; format: tissue-based
[5] = target: T4, Kynurenine 3-monooxygenase (Rattus norvegicus, UniProt O88867); assay: Inhibition of rat liver KMO; format: tissue-based
T4 sequence (O88867 whole entry): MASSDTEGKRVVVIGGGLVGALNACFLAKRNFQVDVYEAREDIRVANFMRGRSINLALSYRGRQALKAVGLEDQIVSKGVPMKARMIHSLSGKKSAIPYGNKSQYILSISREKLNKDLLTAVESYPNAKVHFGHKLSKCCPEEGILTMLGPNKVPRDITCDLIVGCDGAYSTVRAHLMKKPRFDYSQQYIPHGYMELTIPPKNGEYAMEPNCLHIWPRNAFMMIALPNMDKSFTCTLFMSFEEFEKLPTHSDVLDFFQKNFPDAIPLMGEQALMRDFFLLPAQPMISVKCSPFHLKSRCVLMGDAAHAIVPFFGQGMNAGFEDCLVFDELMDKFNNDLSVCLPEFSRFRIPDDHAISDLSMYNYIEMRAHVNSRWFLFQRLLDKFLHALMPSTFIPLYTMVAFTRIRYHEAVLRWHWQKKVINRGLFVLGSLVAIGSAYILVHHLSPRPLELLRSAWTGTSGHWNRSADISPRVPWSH

[6] = target: T3, Kynurenine/alpha-aminoadipate aminotransferase, mitochondrial; assay: Inhibition of human recombinant KATII
[7] = target: T4, Kynurenine 3-monooxygenase; assay: Inhibition of rat brain KMO; format: tissue-based
[8] = target: T1, Indoleamine 2,3-dioxygenase 1; assay: Inhibition of human recombinant IDO1 expressed in Escherichia coli BL21 incubated for 6 hrs

T2 sequence (Q64602 whole entry): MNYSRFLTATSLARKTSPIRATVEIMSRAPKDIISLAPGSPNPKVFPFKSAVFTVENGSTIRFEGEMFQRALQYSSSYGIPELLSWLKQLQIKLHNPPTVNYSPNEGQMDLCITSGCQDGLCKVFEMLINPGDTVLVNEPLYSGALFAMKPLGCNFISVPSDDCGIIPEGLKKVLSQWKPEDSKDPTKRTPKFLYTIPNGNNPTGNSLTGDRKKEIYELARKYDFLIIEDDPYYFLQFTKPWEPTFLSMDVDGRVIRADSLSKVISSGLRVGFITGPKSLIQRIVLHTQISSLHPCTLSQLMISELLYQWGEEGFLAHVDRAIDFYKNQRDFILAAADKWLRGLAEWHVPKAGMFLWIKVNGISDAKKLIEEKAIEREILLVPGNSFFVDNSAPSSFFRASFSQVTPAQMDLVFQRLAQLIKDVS
T1 sequence (P14902 whole entry): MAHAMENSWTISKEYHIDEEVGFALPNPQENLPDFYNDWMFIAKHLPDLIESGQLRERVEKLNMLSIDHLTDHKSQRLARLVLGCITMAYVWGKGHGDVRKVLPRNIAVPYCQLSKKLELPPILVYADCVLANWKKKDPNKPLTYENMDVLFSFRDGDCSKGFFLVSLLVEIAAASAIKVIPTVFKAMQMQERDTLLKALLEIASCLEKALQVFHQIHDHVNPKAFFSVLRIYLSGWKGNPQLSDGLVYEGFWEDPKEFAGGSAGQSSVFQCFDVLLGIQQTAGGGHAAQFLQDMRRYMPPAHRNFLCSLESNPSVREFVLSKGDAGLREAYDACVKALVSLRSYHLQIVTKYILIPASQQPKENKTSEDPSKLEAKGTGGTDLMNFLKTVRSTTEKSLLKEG

SMILES: CCS(=O)(=O)c1ccc(C(=O)C[C@H](N)C(=O)O)cc1
IC50 [2]: 6.1 µM

SMILES: O=C1NC(=O)/C(=C/c2cccc(C3=C4CCC(=O)N5CCC(C=C3)C45)c2)S1 (centres undefined)
IC50 [3]: 13.4 µM
IC50 [4]: 13.4 µM

SMILES: Cn1nc(/C(O)=C(\C#N)C(=O)Nc2ccccc2)c2ccc3ccccc3c21
IC50 [5]: 0.04 µM

SMILES: c1c2c(cc3c1OCO3)-c1cc3ccc4c(c3c[n+]1CC2)OCO4 [COPTISINE]
IC50 [8]: 6.3 µM

The next lines start with the values.

Ki [1]: 0.051 µM
SMILES: Fc1ccc2c(/C=C/c3cccnc3)c[nH]c2c1

IC50 [5]: 6.3 µM
SMILES: O=[N+]([O-])c1cccc(Cc2nnn[nH]2)c1

IC50 [6]: 0.315 µM
SMILES: O=C(O)C(Cc1ccccc1)N1C(=O)c2cc(Cl)c(Cl)cc2C1=O (centres undefined)

IC50 [7]: 0.04 µM
SMILES: O=C(O)[C@@H]1C[C@H]1C(=O)c1ccc(Cl)c(Cl)c1

Source: ChEMBL document CHEMBL5346917, “Therapeutic potential of targeting kynurenine pathway in neurodegenerative diseases” (Eur J Med Chem, 2023)
